Results as given in patent US20170303543A1, “AGRICHEMICAL COMPOSITIONS AND METHODS OF MAKING AND USING SAME” (priority 2014, published 2017).

tested on: Xanthomonas alfalfae; test: Alamar Blue assay for antimicrobial activity (FIG. 11); format: cell-based; details: metallic zinc concentration as low as 50 PPM, components at relevant concentrations
Text: FIG. 11A, FIG. 11B, FIG. 11C and FIG. 11D show a series of images illustrating Alamar Blue assay in accordance with the embodiments. […] It is to be understood that this disclosure is not limited to the foregoing particular embodiments described, as such may, of course, vary. It is also to be understood that the terminology used herein is for the purpose of describing particular embodiments only, and is not intended to be limiting, since the scope of the present disclosure will be limited only by the appended claims.

| SMILES | antimicrobial effect against Xanthomonas alfalfae |
| --- | --- |
| NC(N)=O [urea] | did not elicit similar effect |
| [Zn+2] [divalent zinc ion] | did not elicit similar effect |
| OO [hydrogen peroxide] | did not elicit similar effect |
